Assay results from ChEMBL document CHEMBL1201862, “PubChem BioAssay data set” (2004).
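The compound was tested at five concentrations on cells cultured in 96-well plates, with a 48-hour exposure period. At the GI50, growth is halved.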 Active and inactive are the calls of the source. Cut-off read from the data, not from the text of the source: active = GI50 up to about 1.1 µM and inactive = higher.

Tests used:
Test in all cases: NCI-60 cell line screen, 48 h
ACHN = system: ACHN
NCI-H23 = system: NCI-H23
MOLT-4 = system: MOLT-4
LXFL 529 = system: LXFL 529
HT-29 = system: HT-29
A498 = system: A498
OVCAR-8 = system: OVCAR-8
KM12 = system: KM12
HOP-92 = system: HOP-92
M14 = system: M14
M19-MEL = system: M19-MEL
A549 = system: A549
SF-268 = system: SF-268
NCI-H226 = system: NCI-H226
HL-60 = system: HL-60
SNB-19 = system: SNB-19
NCI-H460 = system: NCI-H460
SK-MEL-5 = system: SK-MEL-5
SK-MEL-2 = system: SK-MEL-2
U-251 = system: U-251
LOX IMVI = system: LOX IMVI
Malme-3M = system: Malme-3M
COLO 205 = system: COLO 205
HOP-62 = system: HOP-62
OVCAR-3 = system: OVCAR-3
DLD-1 = system: DLD-1
HCT-15 = system: HCT-15
SNB-78 = system: SNB-78
OVCAR-4 = system: OVCAR-4
HCT-116 = system: HCT-116
K562 = system: K562
DMS-273 = system: DMS-273
EKVX = system: EKVX
CCRF-CEM = system: CCRF-CEM
OVCAR-5 = system: OVCAR-5
SNB-75 = system: SNB-75
SN12C = system: SN12C
HOP-18 = system: HOP-18
SK-MEL-28 = system: SK-MEL-28
HCC 2998 = system: HCC 2998
UACC-257 = system: UACC-257
KM-20L2 = system: KM-20L2
UO-31 = system: UO-31
TK-10 = system: TK-10
RXF 393 = system: RXF 393
SF-539 = system: SF-539
IGROV-1 = system: IGROV-1
SK-OV-3 = system: SK-OV-3
SW-620 = system: SW-620
786-0 = system: 786-0
CAKI-1 = system: CAKI-1
UACC-62 = system: UACC-62
SF-295 = system: SF-295
NCI-H522 = system: NCI-H522
DMS-114 = system: DMS-114
RPMI-8226 = system: RPMI-8226
SR = system: SR

O=c1c(-c2ccccc2)c2oc(c1-c1ccccc1)CSCc1cccc(c1)CSC2
GI50 (ACHN): 18.5 µM (inactive)
GI50 (NCI-H23): > 100 µM (inactive)
GI50 (MOLT-4): > 100 µM (inactive)
GI50 (LXFL 529): 39 µM (inactive)
GI50 (HT-29): 51.9 µM (inactive)
GI50 (A498): 21.8 µM (inactive)
GI50 (OVCAR-8): 43.1 µM (inactive)
GI50 (KM12): 60.3 µM (inactive)
GI50 (HOP-92): 34.3 µM (inactive)
GI50 (M14): > 100 µM (inactive)
GI50 (M19-MEL): 45.9 µM (inactive)
GI50 (A549): 38.5 µM (inactive)
GI50 (SF-268): 30.5 µM (inactive)
GI50 (NCI-H226): 56.4 µM (inactive)
GI50 (HL-60): 67.9 µM (inactive)
GI50 (SNB-19): 33 µM (inactive)
GI50 (NCI-H460): 38.7 µM (inactive)
GI50 (SK-MEL-5): 54.2 µM (inactive)
GI50 (SK-MEL-2): > 100 µM (inactive)
GI50 (U-251): 31 µM (inactive)
GI50 (LOX IMVI): 32.9 µM (inactive)
GI50 (Malme-3M): 45.5 µM (inactive)
GI50 (COLO 205): 49.1 µM (inactive)
GI50 (HOP-62): 21.9 µM (inactive)
GI50 (OVCAR-3): 27.8 µM (inactive)
GI50 (DLD-1): 54.7 µM (inactive)
GI50 (HCT-15): > 100 µM
GI50 (SNB-78): 82.8 µM (inactive)
GI50 (OVCAR-4): 51.9 µM (inactive)
GI50 (HCT-116): 41.2 µM (inactive)
GI50 (K562): 62.5 µM (inactive)
GI50 (DMS-273): 39.5 µM (inactive)
GI50 (EKVX): 42.1 µM (inactive)
GI50 (CCRF-CEM): 80 µM (inactive)
GI50 (OVCAR-5): > 100 µM (inactive)
GI50 (SNB-75): 15.3 µM (inactive)
GI50 (SN12C): 49.1 µM (inactive)
GI50 (HOP-18): 27.8 µM (inactive)
GI50 (SK-MEL-28): 24 µM (inactive)
GI50 (HCC 2998): 94.6 µM (inactive)
GI50 (UACC-257): > 100 µM (inactive)
GI50 (KM-20L2): 67.9 µM (inactive)
GI50 (UO-31): 32.1 µM (inactive)
GI50 (TK-10): 87.1 µM (inactive)
GI50 (RXF 393): 14.5 µM (inactive)
GI50 (SF-539): 22.7 µM (inactive)
GI50 (IGROV-1): 26.3 µM (inactive)
GI50 (SK-OV-3): 25.1 µM (inactive)
GI50 (SW-620): 30.3 µM (inactive)
GI50 (786-0): 27.5 µM (inactive)
GI50 (CAKI-1): 34.2 µM (inactive)
GI50 (UACC-62): 44.1 µM (inactive)
GI50 (SF-295): 51.2 µM (inactive)
GI50 (NCI-H522): 39.6 µM (inactive)
GI50 (DMS-114): 36.9 µM (inactive)
GI50 (RPMI-8226): 27.9 µM (inactive)

N#CC1CC2(C(=O)C1=O)c1ccccc1-c1ccccc12 (centres undefined)
GI50 (ACHN): > 100 µM (inactive)
GI50 (NCI-H23): > 100 µM (inactive)
GI50 (MOLT-4): > 100 µM (inactive)
GI50 (LXFL 529): > 100 µM (inactive)
GI50 (HT-29): > 100 µM (inactive)
GI50 (A498): > 100 µM (inactive)
GI50 (OVCAR-8): > 100 µM (inactive)
GI50 (KM12): > 100 µM (inactive)
GI50 (M14): > 100 µM (inactive)
GI50 (M19-MEL): > 100 µM (inactive)
GI50 (A549): > 100 µM (inactive)
GI50 (SF-268): > 100 µM (inactive)
GI50 (NCI-H226): > 100 µM (inactive)
GI50 (HL-60): > 100 µM (inactive)
GI50 (SNB-19): > 100 µM (inactive)
GI50 (NCI-H460): > 100 µM (inactive)
GI50 (SK-MEL-5): > 100 µM (inactive)
GI50 (SK-MEL-2): > 100 µM (inactive)
GI50 (SR): > 100 µM (inactive)
GI50 (U-251): > 100 µM (inactive)
GI50 (LOX IMVI): > 100 µM (inactive)
GI50 (Malme-3M): > 100 µM (inactive)
GI50 (COLO 205): > 100 µM (inactive)
GI50 (HOP-62): > 100 µM (inactive)
GI50 (OVCAR-3): 87.7 µM (inactive)
GI50 (DLD-1): > 100 µM (inactive)
GI50 (HCT-15): > 100 µM
GI50 (OVCAR-4): > 100 µM (inactive)
GI50 (HCT-116): > 100 µM (inactive)
GI50 (K562): 86.1 µM (inactive)
GI50 (DMS-273): > 100 µM (inactive)
GI50 (EKVX): > 100 µM (inactive)
GI50 (CCRF-CEM): 67.5 µM (inactive)
GI50 (OVCAR-5): > 100 µM (inactive)
GI50 (SNB-75): > 100 µM (inactive)
GI50 (SN12C): > 100 µM (inactive)
GI50 (HOP-18): 82 µM (inactive)
GI50 (SK-MEL-28): > 100 µM (inactive)
GI50 (HCC 2998): > 100 µM (inactive)
GI50 (UACC-257): > 100 µM (inactive)
GI50 (KM-20L2): > 100 µM (inactive)
GI50 (UO-31): > 100 µM (inactive)
GI50 (TK-10): > 100 µM (inactive)
GI50 (RXF 393): > 100 µM (inactive)
GI50 (IGROV-1): > 100 µM (inactive)
GI50 (SK-OV-3): > 100 µM (inactive)
GI50 (SW-620): > 100 µM (inactive)
GI50 (786-0): > 100 µM (inactive)
GI50 (CAKI-1): > 100 µM (inactive)
GI50 (UACC-62): > 100 µM (inactive)
GI50 (SF-295): > 100 µM (inactive)
GI50 (NCI-H522): > 100 µM (inactive)
GI50 (DMS-114): > 100 µM (inactive)
